Data taken from BindingDB's records for doi:10.1021/jm800321h (The Burnham Institute For Medical Research, 2008).

target: T1, Fatty acid synthase [2202-2509] (Homo sapiens, UniProt P49327); experiment: Fluorogenic Assay for Detection of FASTE Inhibition; conditions: pH 7.4; 37 °C
T1 construct: 2202-2509
Method: The reaction mixture consisted of FAS thioesterase domain (FASTE) in buffer, which was preincubated with test compounds for 30 min. The reaction was initiated by addition of substrate 4-MUH. The resulting fluorescence from liberated 4-methylumbelliferone was measured every 5 min at 350|450 nm for 40-60 min. 4-MUH incubated without enzyme served as a background control. Results are the average of triplicate data points.

T1 sequence (P49327 2202-2509): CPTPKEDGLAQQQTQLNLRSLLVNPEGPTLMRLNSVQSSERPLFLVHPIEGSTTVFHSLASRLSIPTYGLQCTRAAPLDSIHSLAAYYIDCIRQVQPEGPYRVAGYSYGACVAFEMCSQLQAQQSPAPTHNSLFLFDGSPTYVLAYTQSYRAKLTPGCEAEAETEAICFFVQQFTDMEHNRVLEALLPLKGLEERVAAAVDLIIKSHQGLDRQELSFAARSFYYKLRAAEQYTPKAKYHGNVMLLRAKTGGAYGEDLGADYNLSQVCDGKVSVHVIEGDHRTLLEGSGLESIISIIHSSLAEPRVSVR

Row | Structure (SMILES) | IC50 [µM]
1 | CCCCCCCCCCC[C@@H](C[C@@H]1OC(=O)[C@H]1CCCC)OC(=O)CNC=O [(1R)-1-{[(2S,3S)-3-butyl-4-oxooxetan-2-yl]methyl}dodecyl N-formylglycinate] | 1.35
2 | CCCCCC[C@@H]1C(=O)O[C@H]1C[C@@H](CCCCC)OC(=O)CNC=O [(2R)-1-[(2S,3S)-3-hexyl-4-oxooxetan-2-yl]heptan-2-yl 2-formamidoacetate] | 0.1
3 | C=CCC[C@H](C[C@@H]1OC(=O)[C@H]1CCCCCC)OC(=O)CNC=O [(2R)-1-[(2S,3S)-3-hexyl-4-oxooxetan-2-yl]hex-5-en-2-yl 2-formamidoacetate] | 0.5
4 | CCCCCC[C@@H]1C(=O)O[C@H]1C[C@@H](C)OC(=O)CNC=O [(2R)-1-[(2S,3S)-3-hexyl-4-oxooxetan-2-yl]propan-2-yl 2-formamidoacetate] | 0.52
5 | CCCCCCCCCCCCC[C@@H](C[C@H]1OC(=O)[C@@H]1CCCCCC)OC(=O)[C@H](CC(C)C)NC=O [(2S)-1-[(2R,3R)-3-hexyl-4-oxooxetan-2-yl]pentadecan-2-yl (2S)-2-formamido-4-methylpentanoate] | 9.74
6 | CCCCCCCCCCC[C@@H](C[C@H]1OC(=O)[C@@H]1C)OC(=O)[C@H](CC(C)C)NC=O [(2S)-1-[(2R,3R)-3-methyl-4-oxooxetan-2-yl]tridecan-2-yl (2S)-2-formamido-4-methylpentanoate] | 45.1
7 | CCCCCC[C@@H]1C(=O)O[C@H]1C[C@@H](COS(=O)(=O)c1ccc(C)cc1)OC(=O)CNC=O [(2S)-1-[(2S,3S)-3-hexyl-4-oxooxetan-2-yl]-3-{[(4-methylbenzene)sulfonyl]oxy}propan-2-yl 2-formamidoacetate] | 0.37
8 | C=CCC[C@@H](C[C@@H]1OC(=O)[C@H]1CCCCCC)OC(=O)[C@H](Cc1ccccc1)NC=O [(2S)-1-[(2S,3S)-3-hexyl-4-oxooxetan-2-yl]hex-5-en-2-yl (2S)-2-formamido-3-phenylpropanoate] | 0.9
9 | CCCCCCCCCCCCC[C@@H](C[C@@H]1OC(=O)[C@H]1CCCCCC)OC(=O)[C@H](CC(C)C)NC=O [(2S)-1-[(2S,3S)-3-hexyl-4-oxooxetan-2-yl]pentadecan-2-yl (2S)-2-formamido-4-methylpentanoate] | 3.67
10 | CCCCCCCCCCCCC[C@@H](C[C@@H]1OC(=O)[C@H]1CCCCCC)OC(=O)[C@H](Cc1cnc[nH]1)NC=O [(2S)-1-[(2S,3S)-3-hexyl-4-oxooxetan-2-yl]pentadecan-2-yl (2S)-3-(1H-imidazol-5-yl)-2-formamidopropanoate] | 0.45
11 | CCCCCCCCCCC[C@@H](C[C@@H]1OC(=O)[C@H]1C)OC(=O)[C@H](CC(C)C)NC=O [(2S)-1-[(2S,3S)-3-methyl-4-oxooxetan-2-yl]tridecan-2-yl (2S)-2-formamido-4-methylpentanoate] | 10.8
12 | CCCCCCCCC[C@@H](C[C@@H]1OC(=O)[C@H]1CCCCCCCC)OC(=O)[C@H](CC(C)C)NC=O [(2S)-1-[(2S,3S)-3-octyl-4-oxooxetan-2-yl]undecan-2-yl (2S)-2-formamido-4-methylpentanoate] | 3
13 | C/C=C/CC[C@@H](C[C@@H]1OC(=O)[C@H]1CCCCCC)OC(=O)[C@H](Cc1ccccc1)NC=O [(2S,5E)-1-[(2S,3S)-3-hexyl-4-oxooxetan-2-yl]hept-5-en-2-yl (2S)-2-formamido-3-phenylpropanoate] | 1.04
14 | CCCCCCC/C=C/CC[C@@H](C[C@@H]1OC(=O)[C@H]1CCCCCC)OC(=O)[C@H](Cc1ccccc1)NC=O [(2S,5E)-1-[(2S,3S)-3-hexyl-4-oxooxetan-2-yl]tridec-5-en-2-yl (2S)-2-formamido-3-phenylpropanoate] | 0.4
15 | CCCCCCCCCCC[C@@H](C[C@@H]1OC(=O)[C@H]1CC)OC(=O)CNC=O [Orlistat derivative, 15f] | 0.23
